Structures can show the parent of a compound that is named as a salt.
Tested on: TTXs sodium channels (ND7/23 cells)
Test: TTXs-sodium channel influx assay (fluorescence, membrane potential kit)
Format: cell-based, rat
Details: veratridine 100 μM
Protocol: ND7/23 rat dorsal root ganglion-derived cell line endogenously expresses a mixed population of TTXs sodium channels (such as Nav1.3, Nav1.2, Nav1.1, Nav1.6). These cells lack of TTXr sodium channels as shown by the absence of their respective transcripts. ND7/23 cells are grown in Dulbecco's Modified Eagle Medium (DMEM, Invitrogen, CA—USA) supplemented with 10% Foetal Bovine Serum (FBS, Invitrogen, CA—USA) and 1 mM sodium piruvate. The cells are seeded at 50,000 cells/well on 96 poly-L-lysine-coated plates and further incubated for 18-24 h before use.
The Membrane Potential Kit Assay (Molecular Devices, CA—USA), based on a negatively charged fluorescent dye able to monitor changes in membrane potential caused by the sodium influx due to the channel opening, is used for the assay.
Cells are incubated with the dye loading for 30 minutes at 25° C. Then, 100 nM of the toxin Anemonia sulcata (used as enhancer of the channel opener response) alone or in the presence of TTX (as reference standard) or test compound are added for further 15 minutes.
The fluorescence (excitation: 530 nm, emission: 565 nm wavelength) is measured before and after (40-45 s) the automated injection of the sodium channel opener veratridine (100 μM) using a Victor plate reader (Perkin Elmer, MA—USA).
The inhibition curves are calculated from 5 concentrations, each in triplicate, and the IC50 determined using a linear regression analysis.
The results, obtained with some compounds which are representative of the entire class of compounds of the invention are reported in Table 1.

Q: `O=C(CNCC(F)(F)c1cccc(OCCCC(F)(F)F)c1)N1CCCC1` [Example 1-18, 2-{2,2-Difluoro-2-[3-(4,4,4-trifluorobutoxy)-phenyl]-ethylamino}-1-(pyrrolidin-1-yl)-ethanone] was tested. Which IC50 did it give?
A: 950 nM

Q: How did the IC50 turn out when `CCCCOc1cccc(C(F)(F)CNC(COC)C(=O)N(C)C)c1` (stereo not drawn) [Example 2-2, 2-[2,2-Difluoro-2-(3-butoxyphenyl)-ethylamino]-3-methoxy-N,N-dimethyl-propanamide] was run?
A: 6200 nM

Q: How did the IC50 turn out when `CCCCOc1cccc(C(F)(F)CNCC(=O)N2CCN(C)CC2)c1` [Example 1-26, 2-[2,2-Difluoro-2-(3-butoxyphenyl)-ethylamino]-1-(4-methylpiperazin-1-yl)-ethanone, hydrochloride] was run?
A: 23200 nM

Q: With `CCCCOc1cccc(C(F)(F)CN(C)CC(=O)N(C)C)c1` [Example 3-1, 2-{[2,2-Difluoro-2-(3-butoxyphenyl)-ethyl]-methylamino}-N,N-dimethyl-acetamide, hydrochloride] as the compound, how does the IC50 read?
A: 2300 nM

Q: How did the IC50 turn out when `CCCCOc1cccc(C(F)(F)CNCC(=O)N2CCCC2)c1` [Example 1-15, 2-[2,2-Difluoro-2-(3-butoxyphenyl)-ethylamino]-1-(pyrrolidin-1-yl)-ethanone, hydrochloride] was run?
A: 1100 nM

Q: With `CCCCOc1cccc(C(F)(F)CNCC(=O)N2CCCCC2)c1` [Example 1-29, 2-[2,2-Difluoro-2-(3-butoxyphenyl)-ethylamino]-1-(piperidin-1-yl)-ethanone, hydrochloride] as the compound, how does the IC50 read?
A: 1800 nM

Q: With `CN1CCN(C(=O)CNCC(F)(F)c2cccc(OCCCC(F)(F)F)c2)CC1` [Example 1-28, 2-{2,2-Difluoro-2-[3-(4,4,4-trifluorobutoxy)-phenyl)-ethylamino}-1-(4-methylpiperazin-1-yl)-ethanone, hydrochloride] as the compound, how does the IC50 read?
A: 3200 nM

Q: For `CCCCOc1cccc(C(F)(F)CNCC(=O)N(CC)CC)c1` [Example 1-32, 2-[2,2-Difluoro-2-(3-butoxyphenyl)-ethylamino]-N,N-diethyl-acetamide, hydrochloride], which IC50 is on record?
A: 2800 nM

Q: For `CCCCOc1cccc(C(F)(F)CN(CCOC)CC(=O)N(C)C)c1` [Example 3-3, 2-{[2,2-Difluoro-2-(3-butoxyphenyl)-ethyl]-(2-methoxyethyl)-amino}-N,N-dimethyl-acetamide, hydrochloride], which IC50 is on record?
A: 1400 nM

Q: For `O=C(CNCC(F)(F)c1cccc(OCCCC(F)(F)F)c1)N1CCOCC1` [Example 1-21, 2-{2,2-Difluoro-2-[3-(4,4,4-trifluorobutoxy)-phenyl]-ethylamino}-1-(morpholin-4-yl)-ethanone, hydrochloride], which IC50 is on record?
A: 7200 nM

Q: How did the IC50 turn out when `CCCCCOc1cccc(C(F)(F)CNCC(=O)N(C)C)c1` [Example 1-2, 2-[2,2-Difluoro-2-(3-pentyloxyphenyl)-ethylamino]-N,N-dimethyl-acetamide, hydrochloride] was run?
A: 1300 nM

Q: How did the IC50 turn out when `CCCCOc1cccc(C(F)(F)CNC(C)C(=O)N(C)C)c1` (stereo not drawn) [Example 2-1, 2-[2,2-Difluoro-2-(3-butoxyphenyl)-ethylamino]-N,N-dimethyl-propanamide, hydrochloride] was run?
A: 20000 nM

Q: With `CCCCOc1cccc(C(F)(F)CN(CCCOC)CC(=O)N(C)C)c1` [Example 3-2, 2-{[2,2-Difluoro-2-(3-butoxyphenyl)-ethyl]-(3-methoxypropyl)-amino}-N,N-dimethyl-acetamide, hydrochloride] as the compound, how does the IC50 read?
A: 2400 nM

Q: Which IC50 does the source give for `CN(C)C(=O)CNCC(F)(F)c1cccc(OCCCC(F)(F)F)c1` [Example 1-7, 2-{2,2-Difluoro-2-[3-(4,4,4-trifluorobutoxy)-phenyl]-ethylamino}-N,N-dimethyl-acetamide, hydrochloride] here?
A: 3600 nM

Q: `CCCCOc1cccc(C(F)(F)CNCC(=O)N2CCC2)c1` [Example 1-42, 2-[2,2-Difluoro-2-(3-butoxyphenyl)-ethylamino)-1-(azetidin-1-yl)-ethanone, hydrochloride] was tested. Which IC50 did it give?
A: 5000 nM

Q: Which IC50 does the source give for `CN(C)C(=O)CNCC(F)(F)c1cccc(OCc2ccccc2)c1` [Example 1-14, 2-[2,2-Difluoro-2-(3-benzyloxyphenyl)-ethylamino]-N,N-dimethyl-acetamide, hydrochloride] here?
A: 1200 nM

Q: How did the IC50 turn out when `CCCCOc1cccc(C(F)(F)CNCC(=O)N(C)C)c1` [Example 1-1, 2-[2,2-Difluoro-2-(3-butoxyphenyl)-ethylamino]-N,N-dimethyl-acetamide, hydrochloride] was run?
A: 1000 nM

Q: `CCCCOc1cccc(C(F)CNCC(=O)N(C)C)c1` (stereo not drawn) [Example 4-1, 2-[2-Fluoro-2-(3-butoxyphenyl)-ethylamino]-N,N-dimethyl-acetamide, hydrochloride] was tested. Which IC50 did it give?
A: 1500 nM

Q: How did the IC50 turn out when `CCCCCCOc1cccc(C(F)(F)CNCC(=O)N(C)C)c1` [Example 1-6, 2-[2,2-Difluoro-2-(3-hexyloxyphenyl)-ethylamino]-N,N-dimethyl-acetamide, hydrochloride] was run?
A: 140 nM

Molecular target: CYP2D6 (Homo sapiens (Human), UniProt P10635)
Sequence (P10635 whole entry): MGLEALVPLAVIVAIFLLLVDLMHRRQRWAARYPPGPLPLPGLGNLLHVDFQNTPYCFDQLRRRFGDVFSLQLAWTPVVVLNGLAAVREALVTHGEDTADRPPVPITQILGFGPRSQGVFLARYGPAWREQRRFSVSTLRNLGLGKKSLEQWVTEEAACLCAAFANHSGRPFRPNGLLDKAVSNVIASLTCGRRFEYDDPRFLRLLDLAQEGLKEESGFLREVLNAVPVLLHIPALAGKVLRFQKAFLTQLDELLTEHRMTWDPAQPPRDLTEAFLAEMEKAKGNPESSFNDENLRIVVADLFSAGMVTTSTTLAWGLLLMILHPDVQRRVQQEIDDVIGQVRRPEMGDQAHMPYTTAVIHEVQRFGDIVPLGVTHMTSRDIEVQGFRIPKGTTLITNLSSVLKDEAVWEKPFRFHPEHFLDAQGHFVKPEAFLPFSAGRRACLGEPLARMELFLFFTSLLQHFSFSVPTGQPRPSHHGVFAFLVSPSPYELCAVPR
Test: Inhibition of Cytochrome P4502D6 (CYP2D6) using Supersomes
Format: in vitro ADME
Details: AMMC substrate, read-out: IC50 (Fluorinated derivative)
Protocol: The inhibition of Cytochrome P4502D6 (CYP2D6) is assessed by performing in vitro inhibition studies using Supersomes, microsomes derived from baculovirus infected insect cells; the baculoviruses are engineered to express one or more drug metabolizing enzyme cDNAs. Supersomes catalyze the same enzymatic reactions as human liver microsome enzymes, but they contain much higher enzyme activity than other microsome sources (Crespi C. L. and Penman B. W., Advances Pharmacology, 43, 171-188 (1997); Crespi C. L. and Miller V. P., Analytical Biochemistry, 248, 188-190 (1997)).
Kits with Supersomes are Supplied by GENTEST (MA, USA).
Test compound is dissolved in DMSO 500× the highest final concentration desired in the IC50 assay. 30 ml of deionized water is pre-warmed to 37° C. and all kit components are placed on ice. For each well of column 1, 149.4 μL of NADPH-Cofactor Mix, (187.5 μl of Cofactors, 150 μl of G6PDH, 100 μl of Control Protein and 14.56 ml of 37° C. water) are added.
In each well from Column 2 to 12, 100 μl of Cofactor/DMSO mix (40 μL DMSO in 9.96 ml of NADPH-Cofactor Mix) are added. To each well of column 1, 0.6 μl of test compound or positive control are added. 50 μl from each well of column 1 are serially diluted to column 8. The extra 50 μl from column 8 are discarded. The plate is covered and pre-incubated at 37° C. for 10 minutes.
Preparation of enzyme/substrate mix: 7.92 ml of pre-warmed deionized water, 75 μl of enzyme, 3 μl of 10 mM AMMC and 2 ml of pre-warmed buffer are mixed.
After the pre-incubation time (10′), 100 μl of enzyme/substrate mix to each well from column 1 to 10 are added. The plate is incubated at 37° C. for 30 minutes. After this time, 75 μl of Stop Reagent to each well are added. For blank controls, 100 μl of enzyme/substrate mix are added to columns 11 and 12.
Plates are read at the Victor plate reader (Perkin Elmer, MA—USA) at 390 nm excitation and 460 nm emission wavelengths.

Q: For `O=C(CNCC(F)(F)c1cccc(OCCCC(F)(F)F)c1)N1CCOCC1` [Example 1-21, 2-{2,2-Difluoro-2-[3-(4,4,4-trifluorobutoxy)-phenyl]-ethylamino}-1-(morpholin-4-yl)-ethanone, hydrochloride], which IC50 is on record?
A: > 40000 nM

Q: For `CCCCCOc1cccc(C(F)(F)CNCC(=O)N(C)C)c1` [Example 1-2, 2-[2,2-Difluoro-2-(3-pentyloxyphenyl)-ethylamino]-N,N-dimethyl-acetamide, hydrochloride], which IC50 is on record?
A: > 40000 nM

Q: For `CCCCOc1cccc(C(F)(F)CNC(C)C(=O)N(C)C)c1` (stereo not drawn) [Example 2-1, 2-[2,2-Difluoro-2-(3-butoxyphenyl)-ethylamino]-N,N-dimethyl-propanamide, hydrochloride], which IC50 is on record?
A: > 40000 nM

Q: For `CCCCOc1cccc(C(F)(F)CN(CCCOC)CC(=O)N(C)C)c1` [Example 3-2, 2-{[2,2-Difluoro-2-(3-butoxyphenyl)-ethyl]-(3-methoxypropyl)-amino}-N,N-dimethyl-acetamide, hydrochloride], which IC50 is on record?
A: > 40000 nM

Same assay, conditions: AMMC substrate, reference standards of the closest prior art, read-out: IC50 (Corresponding de-fluorinated derivative)

Q: Which IC50 does the source give for `CCCCOc1cccc(CCNCC(=O)N(CCC)CCC)c1` [2-[2-(3-Butoxyphenyl)-ethylamino]-N,N-dipropyl-acetamide, hydrochloride] here?
A: 700 nM

Q: For `O=C(CNCCc1cccc(OCCCC(F)(F)F)c1)N1CCCC1` [2-{2-[3-(4,4,4-trifluorobutoxy)-phenyl]-ethylamino}-1-(pyrrolidin-1-yl)-ethanone, hydrochloride], which IC50 is on record?
A: 5000 nM

Q: Which IC50 does the source give for `CCCCOc1cccc(CCNCC(=O)N(CC)CC)c1` [2-[2-(3-Butoxyphenyl)-ethylamino]-N,N-diethyl-acetamide, hydrochloride] here?
A: 2500 nM

Q: `CCCCOc1cccc(CCN(CCOC)CC(=O)N(C)C)c1` [2-{[2-(3-Butoxyphenyl)-ethyl]-(2-methoxyethyl)-amino}-N,N-dimethyl-acetamide, hydrochloride] was tested. Which IC50 did it give?
A: 3400 nM

Q: With `CCCCOc1cccc(CCNCC(=O)N2CCCC2)c1` [2-[2-(3-Butoxyphenyl)-ethylamino]-1-(pyrrolidin-1-yl)-ethanone, hydrochloride] as the compound, how does the IC50 read?
A: 3000 nM

Q: Which IC50 does the source give for `CCCCCOc1cccc(CCNCC(=O)N(C)C)c1` [2-[2-(3-Pentyloxyphenyl)-ethylamino]-N,N-dimethyl-acetamide, hydrochloride] here?
A: 3500 nM

Q: Which IC50 does the source give for `CCCCCCOc1cccc(CCNCC(=O)N(C)C)c1` [2-[2-(3-Hexyloxyphenyl)-ethylamino]-N,N-dimethyl-acetamide, hydrochloride] here?
A: 900 nM

Q: `CCCCOc1cccc(CCN(CCCOC)CC(=O)N(C)C)c1` [2-{[2-(3-Butoxyphenyl)-ethyl]-(3-methoxypropyl)-amino}-N,N-dimethyl-acetamide, hydrochloride] was tested. Which IC50 did it give?
A: 7300 nM

Q: Which IC50 does the source give for `CN(C)C(=O)CNCCc1cccc(OCc2ccccc2)c1` [2-[2-(3-Benzyloxyphenyl)-ethylamino]-N,N-dimethyl-acetamide, hydrochloride] here?
A: 10600 nM

Q: For `CCCCOc1cccc(CCNCC(=O)N2CCCCC2)c1` [2-[2-(3-Butoxyphenyl)-ethylamino]-1-(piperidin-1-yl)-ethanone, hydrochloride], which IC50 is on record?
A: 1100 nM

Q: For `CCCCOc1cccc(CCNCC(=O)N(C)C)c1` [2-[2-(3-Butoxyphenyl)-ethylamino]-N,N-dimethyl-acetamide, hydrochloride], which IC50 is on record?
A: 5800 nM

Q: With `CCCCOc1cccc(CCNC(C)C(=O)N(C)C)c1` (stereo not drawn) [2-[2-(3-Butoxyphenyl)-ethylamino]-N,N-dimethyl-propanamide, hydrochloride] as the compound, how does the IC50 read?
A: 5800 nM

Q: `O=C(CNCCc1cccc(OCCCC(F)(F)F)c1)N1CCOCC1` [2-{2-[3-(4,4,4-trifluorobutoxy)phenyl]-ethylamino}-1-(morpholin-4-yl)-ethanone, hydrochloride] was tested. Which IC50 did it give?
A: 1800 nM
